{
  "source": "patent US20250205200A1",
  "about": "“5-METHOXY-N,N-[…][…] THE TREATMENT OF […]” (GH RESEARCH IRELAND LIMITED, priority 2022, published 2025)",
  "test": "Pharmacokinetics of 5-MeO-DMT and bufotenine after inhalation",
  "type": "in vivo, human",
  "data": [
    {"smiles": "COc1ccc2[nH]cc(CCN(C)C)c2c1", "note": "[5-MeO-DMT]", "values": [
      {"measurement": "Plasma concentration as % of Cmax", "setting": "10 minutes after inhalation, 6, 12, 18 mg", "result": "≤ 10 % of Cmax"},
      {"measurement": "Plasma concentration as % of Cmax", "setting": "2 hours after inhalation, 6, 12, 18 mg", "result": "≤ 1 % of Cmax"},
      {"measurement": "Detectability in the plasma", "setting": "3 hours after inhalation, 6, 12, 18 mg", "result": "no longer detectable"},
      {"measurement": "Time of maximum concentrations and pharmacological effects", "setting": "inhaled", "result": "during and immediately after dosing"},
      {"measurement": "Accumulation upon repeated administration", "setting": "repeated administration within 1 to 4 hours", "result": "No accumulation"}
    ]}
  ]
}
